Tests used:
Rattus norvegicus [1] = assay: Antidiabetic activity in Wistar rat assessed as change in blood glucose level at 50 mg/kg, ig after 1 hr (RVb = 20.18 % +/- 8.49%); assay type: functional; details: route intragastric
Rattus norvegicus [2] = assay: Hypoglycemic activity in Wistar rat assessed as change in blood glucose level at 50 mg/kg, ig after 3 hrs (RVb = 1.39 +/- 5.895 %); assay type: functional; details: route intragastric
Rattus norvegicus [3] = assay: Antidiabetic activity in STZ-induced Wistar rat assessed as reduction in blood glucose level at 50 mg/kg, ig after 2 day relative to control; assay type: functional; parameters: scale not given: the % may be the effect or the level left; details: route intragastric
Rattus norvegicus [4] = assay: Hypoglycemic activity in Wistar rat assessed as change in blood glucose level at 50 mg/kg, ig after 7 hrs (RVb = -3.59 +/- 2.65 %); assay type: functional; details: route intragastric
Rattus norvegicus [5] = assay: Antidiabetic activity in STZ-induced Wistar rat assessed as reduction in blood glucose level at 50 mg/kg, ig after 5 day relative to control; assay type: functional; parameters: scale not given: the % may be the effect or the level left; details: route intragastric
Rattus norvegicus [6] = assay: Antidiabetic activity in STZ-induced Wistar rat assessed as reduction in blood glucose level at 50 mg/kg, ig after 3 day relative to control; assay type: functional; parameters: scale not given: the % may be the effect or the level left; details: route intragastric
Rattus norvegicus [7] = assay: Hypoglycemic activity in Wistar rat assessed as change in blood glucose level at 50 mg/kg, ig after 1 hr (RVb = 10.96 +/- 3.67 %); assay type: functional; details: route intragastric
Rattus norvegicus [8] = assay: Hypoglycemic activity in Wistar rat assessed as change in blood glucose level at 50 mg/kg, ig after 5 hrs (RVb = 1.21+/- 3.64 %); assay type: functional; details: route intragastric
Rattus norvegicus [9] = assay: Antidiabetic activity in Wistar rat assessed as change in blood glucose level at 50 mg/kg, ig after 5 hrs (RVb = -1.17% +/- 8.77%); assay type: functional; details: route intragastric
Rattus norvegicus [10] = assay: Antidiabetic activity in STZ-induced Wistar rat assessed as reduction in blood glucose level at 50 mg/kg, ig after 1 day relative to control; assay type: functional; parameters: scale not given: the % may be the effect or the level left; details: route intragastric
Rattus norvegicus [11] = assay: Antidiabetic activity in STZ-induced Wistar rat assessed as reduction in blood glucose level at 50 mg/kg, ig after 4 day relative to control; assay type: functional; parameters: scale not given: the % may be the effect or the level left; details: route intragastric
Rattus norvegicus [12] = assay: Antidiabetic activity in Wistar rat assessed as change in blood glucose level at 50 mg/kg, ig after 7 hrs (RVb = -10.51% +/- 5.53%); assay type: functional; details: route intragastric
Rattus norvegicus [13] = assay: Antidiabetic activity in Wistar rat assessed as change in blood glucose level at 50 mg/kg, ig after 3 hrs (RVb = -9.83 % +/- 5.67%); assay type: functional; details: route intragastric
[14] = biological target: 11-beta-hydroxysteroid dehydrogenase 1 (Homo sapiens) (UniProt P28845); assay: Inhibition of human 11beta HSD1 in HEK293 cells at 10 uM; assay type: cell-based
11-beta-hydroxysteroid dehydrogenase 1 (Homo sapiens), sequence (P28845 whole entry, looked up): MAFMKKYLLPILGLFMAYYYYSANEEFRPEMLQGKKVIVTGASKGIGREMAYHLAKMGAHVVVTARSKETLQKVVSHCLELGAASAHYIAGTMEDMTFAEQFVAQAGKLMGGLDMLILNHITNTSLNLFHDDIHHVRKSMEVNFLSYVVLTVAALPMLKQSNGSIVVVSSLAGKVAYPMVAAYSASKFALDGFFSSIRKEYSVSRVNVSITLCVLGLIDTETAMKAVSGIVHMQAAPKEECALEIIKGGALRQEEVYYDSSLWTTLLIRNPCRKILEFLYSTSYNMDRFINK

Compound	Activity (Rattus norvegicus [1]) [%]	Activity (Rattus norvegicus [2]) [%]	Activity (Rattus norvegicus [3]) [%]	Activity (Rattus norvegicus [4]) [%]	Activity (Rattus norvegicus [5]) [%]	Activity (Rattus norvegicus [6]) [%]	Activity (Rattus norvegicus [7]) [%]	Activity (Rattus norvegicus [8]) [%]	Activity (Rattus norvegicus [9]) [%]	Activity (Rattus norvegicus [10]) [%]	Activity (Rattus norvegicus [11]) [%]	Activity (Rattus norvegicus [12]) [%]	Activity (Rattus norvegicus [13]) [%]	inhibition [14] [%]
O=c1cc(-c2ccccc2)oc2ccc(O)cc12 [6-HYDROXYFLAVONE]	-13.08	6.51	6.6	-0.93	34.7	13.15	-16.21	6.41	-19.81	16.9	2.53	-25.42	-11.07	–
O=c1cc(-c2ccccc2)oc2cc(O)ccc12 [7-HYDROXYFLAVONE]	-12.79	-6.19	35.5	-4.81	38.5	36	5.05	7.39	-10.03	8.8	20.4	-12.18	-12.69	–
O=c1cc(-c2ccccc2)oc2cc(O)cc(O)c12 [CHRYSIN]	-1.7	-19.98	19.6	-9.42	17.17	5.2	-9.27	-17.08	-10.41	7.07	0.5	-35.5	-9.96	–
O=c1cc(-c2ccccc2)oc2ccccc12 [FLAVONE]	13.53	-21.56	32.76	-11.65	10.8	19.5	-16.16	-24.7	-21.41	0.05	10.6	-39.69	-10.02	16
O=c1c(O)c(-c2ccccc2)oc2ccccc12 [FLAVONOL]	1.93	-20.2	7.7	-10.05	9.2	35.7	-6.04	-2.36	-15.66	2.09	60.1	-16.04	-5.92	–
COc1ccc(Cl)cc1C(=O)NCCc1ccc(S(=O)(=O)NC(=O)NC2CCCCC2)cc1 [GLYBURIDE]	-21.93	-21.71	32.2	-23.77	40	38.5	-8.29	-24.78	-43.88	33.2	50	-42.52	-24.93	–
O=c1c(O)c(-c2ccc(O)c(O)c2)oc2cc(O)cc(O)c12 [QUERCETIN]	-2.37	-21.1	13.3	-17.85	3.7	27	-16.19	-10.74	-52.68	10.8	21.3	-42.62	-17.28	27
